# Assay results as given in patent publication US8618095B2 (Rigel Pharmaceuticals, Inc., priority 2010, dated 2013).
# System: Human mast cells (CHMC)
# Test: LD Tryptase release assay in CHMC (mast cell activation induced by FcγR cross-linking)
# Type: cell-based
# Conditions: Homo sapiens, Mast cell, anti-IgG stimulation, activity of tryptase released upon degranulation
# Procedure: Compounds were assayed for inhibition of mast cell activation induced by FcγR cross-linking by measuring the activity of tryptase released upon degranulation as follows:
# Human mast cells were cultured and differentiated from […] progenitor cell as described in U.S. Patent Publication No. 2005-234049, incorporated herein by reference. For example, 65 μL of various concentrations of the compound to be assayed were prepared in MT (137 mM NaCl, 2.7 mM KCl, 1.8 mM CaCl2, 1.0 mM MgCl2, 5.6 mM Glucose, 20 mM Hepes (pH 7.4), 0.1% Bovine Serum Albumin, (Sigma A4503)) containing 2% MeOH and 1% DMSO, or control buffer were added to duplicate 96-well V-bottom plates. Pelleted and re-suspended (in warm MT) CHMC cells (65 μL) were added to each 96-well plate, mixed and incubated for 1 hour at 37° C. 25 μl of 6× anti-IgG Rabbit anti-human IgG, Affinity purified (Bethyl Laboratories Cat No. A80-105A3) final concentration 1 μg/mL, was added to the test wells. MT (25 μL) was added to control wells. After a 60-minute incubation at 37° C., cells and cell debris were pelleted by centrifugation at 1000 rpm for 10 min and tryptase and leukotriene C4 levels were measured.
# To measure tryptase levels, 25 μL of supernatant from each well was transferred to a fresh 96-well black bottom plate, to which 100 μL of fresh tryptase substrate solution [(Z-Ala-Lys-Arg-AMC2TFA; Enzyme Systems Products, #AMC-246)] 1:2000 in tryptase assay buffer [0.1 M Hepes (pH 7.5), 10% w/v Glycerol, 10 μM Heparin (Sigma H-4898) 0.01% NaN3] was added. After 30 minute incubation at room temperature, the optical density of the plates is measured at 355 nm/460 nm on a spectrophotometric plate reader. Table 1 provides the IC50 values.
# Compounds of the disclosure were assayed for their ability to inhibit mast cell activation induced by FcγR cross-linking by measuring the activity of tryptase released upon degranulation. The IC50 values for the LD Tryptase assay are presented in Table 2, in which “0” is >100 μM; “A” is 1-100 μM; “B” is 0.5-1 μM; “C” is 0.1-0.5 μM; and “D” is less than 0.1 μM: […]
row,IC50 [nM],SMILES
1,< 100,"CC1(C)Oc2ccc(Nc3nc(Nc4ccc5nc(-c6ccncc6)[nH]c5c4)ncc3F)nc2NC1=O [Compound 132, N4-(2,2-dimethyl-3,4-dihydro-3-oxo-2H-pyrido[3,2-b][1,4]oxazin-6-yl)-5-fluoro-N2-[2-(pyridin-4-yl)-1H-benzo[d]imidazol-6-yl]-2,4-pyrimidinediamine]"
2,< 100,"CC1(C)Oc2ccc(Nc3nc(Nc4ccc(N5CCOCC5)c(F)c4)ncc3F)nc2NC1=O [Compound 26, N4-(2,2-dimethyl-3,4-dihydro-3-oxo-2H-pyrido[3,2-b][1,4]oxazin-6-yl)-5-fluoro-N2-[3-fluoro-4-morpholinophenyl]-2,4-pyrimidinediamine]"
3,< 100,"CN(c1ccc(Nc2ncc(F)c(Nc3ccc4c(n3)NC(=O)C(C)(C)O4)n2)cn1)C1CCOCC1 [Compound 143, N4-(2,2-dimethyl-3,4-dihydro-3-oxo-2H-pyrido[3,2-b][1,4]oxazin-6-yl)-5-fluoro-N2-[6-(methyl(tetrahydro-2H-pyran-4-yl)amino)pyridin-3-yl]-2,4-pyrimidinediamine]"
4,100 to 500,"CC1(C)Oc2ccc(Nc3nc(Nc4ccc(N5CCCOCC5)cc4)ncc3F)nc2NC1=O [Compound 43, N4-(2,2-dimethyl-3,4-dihydro-3-oxo-2H-pyrido[3,2-b][1,4]oxazin-6-yl)-5-fluoro-N2-[4-homomorpholinophenyl]-2,4-pyrimidinediamine]"
5,1000 to 100000,"CC1(C)CN(c2ncc(Nc3ncc(F)c(Nc4ccc5c(n4)NC(=O)C(C)(C)O5)n3)cc2F)CCO1 [Compound 15, N4-(2,2-dimethyl-3,4-dihydro-3-oxo-2H-pyrido[3,2-b][1,4]oxazin-6-yl)-5-fluoro-N2-[5-fluoro-6-(2,2-dimethylmorpholino)pyridin-3-yl]-2,4-pyrimidinediamine]"
6,1000 to 100000,"CC1(C)Oc2ccc(Nc3nc(Nc4ccc(N5CCOCC5)c(OC(F)F)c4)ncc3F)nc2NC1=O [Compound 25, N4-(2,2-dimethyl-3,4-dihydro-3-oxo-2H-pyrido[3,2-b][1,4]oxazin-6-yl)-5-fluoro-N2-[3-difluoromethoxy-4-morpholinophenyl]-2,4-pyrimidinediamine]"
7,1000 to 100000,"CC1(C)Oc2ccc(Nc3nc(Nc4ccc(-c5cccnc5)nc4)ncc3F)nc2NC1=O [Compound 75, N4-(2,2-dimethyl-3,4-dihydro-3-oxo-2H-pyrido[3,2-b][1,4]oxazin-6-yl)-5-fluoro-N2-[2,3′-bipyridin-5-yl]-2,4-pyrimidinediamine]"
8,< 100,"[2H]C1([2H])OC([2H])([2H])C([2H])([2H])N(c2ccc(Nc3ncc(F)c(Nc4ccc5c(n4)NC(=O)C(C)(C)O5)n3)cc2)C1([2H])[2H] [Compound 131, N4-(2,2-dimethyl-3,4-dihydro-3-oxo-2H-pyrido[3,2-b][1,4]oxazin-6-yl)-5-fluoro-N2-[4-(2,2,3,3,5,5,6,6-d8-morpholino)phenyl]-2,4-pyrimidinediamine]"
9,< 100,"C[C@@H]1CN(c2ccc(Nc3ncc(F)c(Nc4ccc5c(n4)NC(=O)CO5)n3)cc2)CCO1 [Compound 117, N4-(3,4-dihydro-3-oxo-2H-pyrido[3,2-b][1,4]oxazin-6-yl)-5-fluoro-N2-[4-((2R)-2-methylmorpholino)phenyl]-2,4-pyrimidinediamine]"
10,100 to 500,"CCOC[C@@H]1CN(c2ccc(Nc3ncc(F)c(Nc4ccc5c(n4)NC(=O)CO5)n3)cn2)CCO1 [Compound 100, N4-(3,4-dihydro-3-oxo-2H-pyrido[3,2-b][1,4]oxazin-6-yl)-N2-[6-(((2S)-2-ethoxymethyl)morpholino)pyridin-3-yl]-5-fluoro-2,4-pyrimidinediamine]"
11,100 to 500,CN(C[C@@H]1CCCO1)c1ccc(Nc2ncc(F)c(Nc3ccc4c(n3)NC(=O)C(C)(C)O4)n2)cn1 [Compound 109]
